Experiments:
[1] = Acute oral toxicity, Hodge and Sterner toxicity scale; conditions: in vivo, rat, inferred from LD10 of ref 49
Source text: The lethal dose 10% (LD 10; the dose at which 10% of the individuals die)

[2] = UPLC/ESI-tqMS time profile of 2,6-DCQ and its degradation products in simulated seawater (pH 8.2, darkness); OH-DCQ formation; conditions: for Concentration: 2,6-DCQ degradation / OH-DCQ formation; for Peak area: 2,6-DCQ degradation, pH 8.2, darkness
Method: A Waters UPLC system coupled with ESI-tqMS was used to characterize the degradation products of 2,6-DCQ. The UPLC separation was performed using an HSS T3 column (100 × 2.1 mm, 1.8 μm particle size, Waters) with a column temperature of 35 °C. A gradient eluent of methanol–water was applied at a flow rate of 0.4 mL min^−1. The gradient program was set as follows: methanol/water (v/v) ratio changed linearly from 5/95 to 90/10 in the first 8 min and then returned to 5/95 during 8.0‒8.1 min, which was held for 2.9 min for re-equilibration. The ESI-tqMS was set as follows: ESI negative mode, capillary voltage 2.8 kV, cone voltage 10–50 V (depending on analytes), cone gas flow 50 L h^−1, source temperature 120 °C, desolvation temperature 400 °C, desolvation gas flow 800 L h^−1, collision energy 15–50 eV (depending on analytes), collision gas (argon) flow 0.25 mL min^−1, and mass resolution 15 (1-unit resolution).
The degradation of 2,6-DCQ in seawater was simulated by adding 10 mg L^−1 2,6-DCQ to 50 mL ultrapure water, which was adjusted to pH 8.2 with 5 mM sodium carbonate (to simulate the alkalinity in seawater and also to be compatible with the subsequent UPLC/ESI-tqMS analysis). The sample was kept in darkness for 0–24 h, during which the pH of the sample was maintained at 8.1 ± 0.1. At a designated reaction time, 7.5 μL of the sample was injected into the UPLC system. For a nonhalogenated degradation product, the selected ion recording (SIR) mode with a dwell time of 0.05 s was adopted to obtain the retention time. For halogenated degradation products, the multiple reaction monitoring mode with a dwell time of 0.05 s was used to obtain the retention time and the isotopic abundance ratio. To investigate the time-dependent profile of 2,6-DCQ and its degradation products, the peak area of each compound was determined using the SIR mode in the UPLC/ESI-tqMS analysis.
The second aliquot was subjected to analysis of total organic halogen to quantify the collected OH-DCQ. The determination of total organic halogen was based on Standard Method 5320B[52], with modifications of using off-line ion chromatography for halide detection. Briefly, the aliquot was dissolved in 100 mL ultrapure water and acidified to pH 2 with concentrated nitric acid[52] prior to adsorption onto pre-packed activated carbon columns (Mitsubishi). A three-channel adsorption module (TXA03C, Mitsubishi Chemical Analytech) was used for adsorption. An AQF-100 automatic quick furnace (Mitsubishi Chemical Analytech) was used for pyrolysis. During the pyrolysis process, the chlorine atoms in OH-DCQ were converted to chloride. The chloride ion concentration was determined using an ICS-3000 ion chromatography system (Dionex). 2,6-DCQ was used as a standard compound for measuring total organic halogen to determine the recovery of the analysis. The total organic halogen analysis was conducted in duplicate.

[3] = Degradation of 2,6-DCQ in phosphate-buffered ultrapure water (pH 8.2) in darkness; assay type: physicochemical
Method: For the stability of 2,6-DCQ in aquatic environments, we used seawater because seawater
investigate the effect of chloride ions on the stability of 2,6-DCQ, we have conducted the
degradation experiments of 2,6-DCQ in seawater (pH 8.2) and ultrapure water (added with 4 mM
phosphate buffer at pH 8.2) in darkness.
Lines 185–188 in the revision-marked manuscript, “We also investigated the effect of the high
chloride level in seawater on the degradation of 2,6-DCQ in darkness.

rat = conditions: oral; cited from earlier work
E. coli = assay: Fluorescence microscopic analysis of propidium iodide-stained E. coli (membrane integrity); assay type: cell-based, Escherichia coli; conditions: with increasing 2,6-DCQ dose
Method: The E. coli cells in the control and disinfected samples were pelleted by centrifugation at 8000×g (5 min, 4 °C) and resuspended in 200 μL PBS (0.1 M, pH 7.2). Propidium iodide[54] was added to the cell suspension at a concentration of 75 μM. After propidium iodide staining in darkness for 30 min, the samples were washed twice with PBS and mounted on glass slides. The samples were then examined using a fluorescence microscope (Eclipse Ti, Nikon, Japan). The fluorescence intensity was semi-quantified with ImageJ software (National Institutes of Health, Bethesda, MD).

aquatic invertebrates = tested on: aquatic invertebrates; set-up: method as in earlier work; conditions: USEPA; cited from earlier work

With `O=C1C=C(Cl)C(=O)C(Cl)=C1` [2,6-DCQ, 2,6-dichlorobenzoquinone] the LD50 [1] was ≥ 1000 mg/kg, the Concentration ([2]; degradation time 0 h) was 10000 ng/mL and the Concentration ([2]; degradation time 0.25 h) was 9325 ng/mL. For the same compound, the Concentration ([2]; degradation time 0.5 h) was 7750.7 ng/mL, the Concentration ([2]; degradation time 0.75 h) was 7678 ng/mL and the Concentration ([2]; degradation time 1 h) was 6527 ng/mL. The Concentration ([2]; degradation time 1.25 h) was 5831 ng/mL, the Concentration ([2]; degradation time 1.5 h) was 4783 ng/mL and the Concentration ([2]; degradation time 1.75 h) was 4325 ng/mL. For the same compound, the Concentration ([2]; degradation time 2 h) was 3926 ng/mL, the Concentration ([2]; degradation time 2.25 h) was 3481 ng/mL and the Concentration ([2]; degradation time 2.5 h) was 3034.4 ng/mL. The Concentration ([2]; degradation time 2.75 h) was 2761 ng/mL, the Concentration ([2]; degradation time 3 h) was 2333 ng/mL and the Concentration ([2]; degradation time 3.25 h) was 2120 ng/mL. The Concentration ([2]; degradation time 3.5 h) was 1754 ng/mL, the Concentration ([2]; degradation time 3.75 h) was 1608 ng/mL and the Concentration ([2]; degradation time 4 h) was 1408 ng/mL. For the same compound, the Concentration ([2]; degradation time 4.5 h) was 986.7 ng/mL, the Concentration ([2]; degradation time 5 h) was 705.1 ng/mL and the Concentration ([2]; degradation time 5.5 h) was 583.3 ng/mL. It also gave a Concentration ([2]; degradation time 6 h) of 424 ng/mL, a Concentration ([2]; degradation time 6.5 h) of 287.5 ng/mL and a Concentration ([2]; degradation time 7 h) of 231.6 ng/mL. For the same compound, the Concentration ([2]; degradation time 7.5 h) was 179.6 ng/mL, the Concentration ([2]; degradation time 8 h) was 153.3 ng/mL and the Concentration ([2]; degradation time 10 h) was 54.98 ng/mL. For the same compound, the Concentration ([2]; degradation time 12 h) was 24.77 ng/mL, the Concentration ([2]; degradation time 14 h) was 14.36 ng/mL and the Concentration ([2]; degradation time 16 h) was 0 ng/mL. It also gave a Concentration ([2]; degradation time 18 h) of 0 ng/mL, a Concentration ([2]; degradation time 20 h) of 0 ng/mL and a Concentration ([2]; degradation time 24 h) of 0 ng/mL. It also gave a Peak area ([2]; 0 h) of 56527.8, a Peak area ([2]; 0.25 h) of 52714.2 and a Peak area ([2]; 0.5 h) of 43813. For the same compound, the Peak area ([2]; 0.75 h) was 43401.4, the Peak area ([2]; 1 h) was 36894.2 and the Peak area ([2]; 1.25 h) was 32960.2. It also gave a Peak area ([2]; 1.5 h) of 27035.4, a Peak area ([2]; 1.75 h) of 24446.8 and a Peak area ([2]; 2 h) of 22195.6. For the same compound, the Peak area ([2]; 2.25 h) was 19679.8, the Peak area ([2]; 2.5 h) was 17152.8 and the Peak area ([2]; 2.75 h) was 15608.6. For the same compound, the Peak area ([2]; 3 h) was 13185.2, the Peak area ([2]; 3.25 h) was 11984 and the Peak area ([2]; 3.5 h) was 9914.8. The Peak area ([2]; 3.75 h) was 9088.8, the Peak area ([2]; 4 h) was 7959 and the Peak area ([2]; 4.5 h) was 5577.6. The Peak area ([2]; 5 h) was 3985.8, the Peak area ([2]; 5.5 h) was 3297 and the Peak area ([2]; 6 h) was 2396.8. For the same compound, the Peak area ([2]; 6.5 h) was 1625.4, the Peak area ([2]; 7 h) was 1309 and the Peak area ([2]; 7.5 h) was 1015. It also gave a Peak area ([2]; 8 h) of 866.6, a Peak area ([2]; 10 h) of 310.8 and a Peak area ([2]; 12 h) of 140. It also gave a Peak area ([2]; 14 h) of 81.2, a Peak area ([2]; 16 h) of 0 and a Peak area ([2]; 18 h) of 0. The Peak area ([2]; 20 h) was 0, the Peak area ([2]; 24 h) was 0 and the “Ln (C/C0)” value ([3]; pH 8.2 in phosphate-buffered water, darkness, 0 h) was 0. The “Effect of chloride ions on degradation” value ([3]; seawater vs phosphate-buffered water, pH 8.2, darkness) was “no discernible effect”, the LD10 (rat) was 500 mg/kg and the “Propidium iodide fluorescence intensity relative to control sample” value (E. coli) was 3.5–59.2 times.
In the case of `Cc1cc(O)cc(C)c1Cl` [PCMX, para-chloro-meta-xylenol, reference compound], the “Toxicity rating to aquatic invertebrates” value (aquatic invertebrates) is listed as “moderately toxic” and the LD50 (rat) is listed as 3830 mg/kg.
